Earlier results in patent publication US20180311203A1, “LIQUID FORMULATION OF CABAZITAXEL” (EMCURE PHARMACEUTICALS LIMITED, priority 2015, published 2018).

In the case of CO[C@H]1C(=O)[C@]2(C)[C@@H](OC)C[C@H]3OC[C@@]3(OC(C)=O)[C@H]2[C@H](OC(=O)c2ccccc2)[C@]2(O)C[C@H](OC(=O)[C@H](O)[C@@H](NC(=O)OC(C)(C)C)c3ccccc3)C(C)=C1C2(C)C [cabazitaxel, (2α,5β,7β, 10β,13a)-4-acetoxy-13-({(2R,3S)-3 [(tertbutoxycarbonyl)amino]-2-hydroxy-3-phenylpropanoyl}oxy)-1-hydroxy-7,10-dimethoxy-9-oxo-5,20-epoxytax-11-en-2-yl benzoate], the solubility in water is given as “about 8 pg per mL”.
